# Entries after “also recorded” stand apart in the source; their conditions may differ. Where two headings read alike, the source gives them in different places.
# Assays:
# [1] = system: GABAB receptor-mediated outward current in hypothalamic arcuate (dopamine, POMC) neurons; membrane associated estrogen receptor; assay: Whole-cell patch voltage clamp: baclofen-induced GABAB response (GIRK outward current) in hypothalamic arcuate neurons; type: cell-based, guinea pig
# full length (ER)α = target: T1, full length (ER)α (Homo sapiens, UniProt P03372); assay: Estrogen receptor binding assay (spin column, [3H]estradiol competition), (ER)α
# T1 construct: purchased PanVera Corp, Madison, Wis., USA
# T1 sequence (P03372 1-595): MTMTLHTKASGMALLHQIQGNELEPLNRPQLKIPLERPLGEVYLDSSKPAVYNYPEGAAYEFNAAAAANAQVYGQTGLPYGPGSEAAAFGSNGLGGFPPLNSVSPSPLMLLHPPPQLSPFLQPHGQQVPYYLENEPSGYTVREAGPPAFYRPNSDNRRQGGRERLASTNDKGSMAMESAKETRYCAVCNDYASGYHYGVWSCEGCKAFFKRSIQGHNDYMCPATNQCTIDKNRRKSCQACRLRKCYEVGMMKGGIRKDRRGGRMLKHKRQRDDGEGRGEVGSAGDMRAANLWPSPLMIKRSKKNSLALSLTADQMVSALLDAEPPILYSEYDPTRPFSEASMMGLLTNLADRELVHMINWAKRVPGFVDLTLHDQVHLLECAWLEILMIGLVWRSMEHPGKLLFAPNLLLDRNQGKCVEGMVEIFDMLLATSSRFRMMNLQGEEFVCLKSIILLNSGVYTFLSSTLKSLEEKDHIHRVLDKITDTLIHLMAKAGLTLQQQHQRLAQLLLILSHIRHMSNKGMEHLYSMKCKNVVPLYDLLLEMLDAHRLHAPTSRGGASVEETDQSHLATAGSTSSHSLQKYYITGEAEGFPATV
# full length (ER)β = target: T2, full length (ER)β (Homo sapiens, UniProt Q92731); assay: Estrogen receptor binding assay (spin column, [3H]estradiol competition), (ER)β
# T2 construct: to full length (ER)α or (ER)β*; purchased PanVera Corp, Madison, Wis., USA
# [2] = system: uteri of ovariectomized C57BL/6 mice; assay: Uterine size and weight in ovariectomized mice (uterotropic action); type: in vivo; conditions: 1 μg daily for 2 days, compared with oil vehicle
# Method: Wild-type C57BL/6 mice in these studies were obtained from Jackson laboratories. All animals were maintained under controlled temperature (25° C.) and photoperiod conditions (14-h light, 10-h dark; lights on between 0700 and 2100) with food and water ad libitum. Adult mice were ovariectomized under isoflurane anesthesia, and allowed to recover for 1 week. […] The uteri were collected, weighed and fixed in 4% paraformaldehyde for later histological analysis (data not shown).
# [3] = 10 μM (PD98059 in the pipette), together with 17β-estradiol
# T2 sequence (Q92731 whole entry): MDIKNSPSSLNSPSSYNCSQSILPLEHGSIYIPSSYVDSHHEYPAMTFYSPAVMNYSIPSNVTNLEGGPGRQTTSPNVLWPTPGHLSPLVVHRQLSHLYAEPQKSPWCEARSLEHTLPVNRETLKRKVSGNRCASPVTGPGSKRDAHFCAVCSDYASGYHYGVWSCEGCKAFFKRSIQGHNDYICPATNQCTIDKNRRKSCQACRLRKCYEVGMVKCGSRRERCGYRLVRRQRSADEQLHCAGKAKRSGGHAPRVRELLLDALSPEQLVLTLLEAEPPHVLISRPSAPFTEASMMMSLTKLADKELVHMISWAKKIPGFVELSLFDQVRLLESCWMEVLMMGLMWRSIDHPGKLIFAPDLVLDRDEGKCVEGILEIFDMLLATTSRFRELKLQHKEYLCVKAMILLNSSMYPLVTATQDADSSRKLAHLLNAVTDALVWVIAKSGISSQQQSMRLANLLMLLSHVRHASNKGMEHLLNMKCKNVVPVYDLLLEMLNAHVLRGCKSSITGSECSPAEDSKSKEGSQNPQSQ
compound,measurement,setting,value
4-hydroxytamoxifen,block of the baclofen response,[1],25%
same,effect on the baclofen response (in words),[1],behave like 17β-estradiol
same,Relative binding affinity (ER)α,full length (ER)α,36%
same,Relative binding affinity (ER)β,full length (ER)β,43%
17β-estradiol 17-hemisuccinate: BSA [17β-estradiol-BSA],effect on the baclofen response (in words),"[1]; 100 nM, substance alone",fully efficacious in inhibiting the baclofen response; also recorded: inhibited the baclofen response; also recorded: identical response to free 17β-estradiol
C[C@]12CC[C@@H]3c4ccc(O)cc4CC[C@H]3[C@@H]1CC[C@H]2O [17α-estradiol],effect on the baclofen response (in words),"[1]; 1 μM, substance alone",no effect; also recorded: inactive; also recorded: no effects were observed
C[C@]12CC[C@@H]3c4ccc(O)cc4CC[C@H]3[C@@H]1CC[C@@H]2O [17β-estradiol],R2/R1 (second over first baclofen response),[1],58.6±3.4%
same,decrease in the response to a second application of baclofen (GABAB outward current),[1],41%
same,effect on the baclofen response (in words),"[1]; 100 nM, substance alone",no effect
"O=C(O)CN(CC(=O)O)c1ccccc1OCCOc1ccccc1N(CC(=O)O)CC(=O)O [BAPTA, 1,2-bis-(o-aminophenoxyethane)-N,N,N′,N′-tetraacetic acid]",effect on the 17β-estradiol attenuation of the baclofen response (in words),"[1]; 10 mM in the internal solution replacing EGTA, with 17β-estradiol",still observed
"CN(C)CCCn1cc(C2=C(c3c[nH]c4ccccc34)C(=O)NC2=O)c2ccccc21.Cl [BIS, bisindolylmaleimide I hydrochloride]",effect on the 17β-estradiol attenuation of the baclofen response (in words),[1],nearly eliminated the effects of 17β-estradiol
Cl.Cl.O=S(=O)(NCCNC/C=C/c1ccc(Br)cc1)c1cccc2cnccc12 [Compound H89],effect on the 17β-estradiol attenuation of the baclofen response (in words),[1]; [3],blocked
N#CC(=C(/N)Sc1ccccc1N)/C(C#N)=C(/N)Sc1ccccc1N [Compound U0126],effect on the 17β-estradiol attenuation of the baclofen response (in words),"[1]; 5 μM, with 17β-estradiol",did not affect 17β-estradiol inhibition of baclofen responses
COc1ccc2c(c1)CC[C@@H]1[C@@H]2CC[C@]2(C)[C@@H](NCCCCCCN3C(=O)C=CC3=O)CC[C@@H]12 [Compound U73122],effect on the 17β-estradiol attenuation of the baclofen response (in words),[1]; [3],blocked
COc1ccc2c(c1)CC[C@@H]1[C@@H]2CC[C@]2(C)[C@@H](NCCCCCCN3C(=O)CCC3=O)CC[C@@H]12 [Compound U73343],effect on the 17β-estradiol attenuation of the baclofen response (in words),[1]; [3],no effect
CC/C(=C(\c1ccccc1)c1ccc(/C=C/C(=O)O)cc1)c1ccccc1 [GW-5638],effect on the baclofen response (in words),"[1]; 1 μM, substance alone",significantly more efficacious than 17β-estradiol; also recorded: behave like 17β-estradiol
Cn1c2ccccc2c2c3c(c4c5ccccc5n(CCC#N)c4c21)CNC3=O [Gö6976],effect on the 17β-estradiol attenuation of the baclofen response (in words),"[1]; concentration not given, with 17β-estradiol",without effect
"C[C@]12CC[C@@H]3c4ccc(O)cc4C[C@@H](CCCCCCCCC[S+]([O-])CCCC(F)(F)C(F)(F)F)[C@H]3[C@@H]1CC[C@@H]2O (some centres unmarked) [ICI 182,780]",effect on the baclofen response (in words),"[1]; 1 μM, substance alone",no effect
same,effect on the 17β-estradiol attenuation of the baclofen response (in words),"[1]; 1 μM, together with 17β-estradiol (100 nM)",blocked
same,effect on the 17β-estradiol attenuation of the baclofen response (in words),"[1]; 1 μM, together with 17β-estradiol (100 nM), listed as ICI-182,780",antagonizes the 17β-estradiol response
COc1cccc(-c2cc(=O)c3ccccc3o2)c1N [PD98059],effect on the 17β-estradiol attenuation of the baclofen response (in words),[1]; [3],did not affect 17β-estradiol inhibition of baclofen responses
same,"R2/R1 (second over first baclofen response), substance + 17β-estradiol",[1]; substance 10 μM in the pipette together with 17β-estradiol,66.1±11.8%
"O=C(c1ccc(OCCN2CCCCC2)cc1)c1c(-c2ccc(O)cc2)sc2cc(O)ccc12 [Raloxifene, raloxifene]",effect on the baclofen response (in words),[1],completely mimicked the actions of 17β-estradiol; also recorded: behave like 17β-estradiol
Nc1ncnc2c1ncn2[C@@H]1O[C@@H]2COP(O)(=S)O[C@H]2[C@H]1O (some centres unmarked) [Rp-cAMP],effect on the 17β-estradiol attenuation of the baclofen response (in words),"[1]; 200 μM, intracellular dialysis, with 17β-estradiol",abolished
"CC/C(=C(\c1ccccc1)c1ccc(OCCN(C)C)cc1)c1ccccc1 [Tamoxifen, tamoxifen]",effect on the 17β-estradiol attenuation of the baclofen response (in words),[1],did not attenuate the effects of 17β-estradiol
same,effect on the baclofen response (in words),[1],inactive
C[C@]12CC[C@@H]3c4ccc(OC(=O)c5ccccc5)cc4CC[C@H]3[C@@H]1CC[C@@H]2O [estradiol benzoate],uterine size,[2],noticeable increase in uterine size
CC(=O)c1c(O)c(C)c(O)c(Cc2c(O)c3c(c(C(=O)/C=C/c4ccccc4)c2O)OC(C)(C)C=C3)c1O [rottlerin],effect on the 17β-estradiol attenuation of the baclofen response (in words),[1],completely blocked
Ac-LGLNLKEYNLV-OH [Gq peptide],effect on the 17β-estradiol attenuation of the baclofen response (in words),[1],significantly blocked

# — US8236987B2, “Selective estrogen receptor modulator compositions and methods for treatment of disease” (The Regents of the University of California, priority 2007, dated 2012)
